Laboratory results published in paper PMC11855827, “High-Throughput Screening of Five Compound Libraries for Anthelmintic Activity and Toxicity Leads to the Discovery of Two Flavonoid Compounds” (International Journal of Molecular Sciences, 2025).
Where “and” joins values, the source holds several entries; their conditions need not be identical. Equal entries are not always repeated. Where two headings read alike, the source gives them in different places.

Tested on: C. elegans
[1] = Table S2, C. elegans SS assay, 110 μM, 0 h, averages of 4 data points
[2] = Table S2, C. elegans SS assay, 110 μM, 24 h, averages of 4 data points

Compound | Percentage of motility inhibition 0 h [1] [%] | Percentage of motility inhibition 24 h [2] | Percentage of motility inhibition 0 h (110 µM) [%] | Percentage of motility inhibition 24 h (110 µM) [%]
Theaflavin‐3'‐gallate | 9 | 0% | – | –
Epimedin A | 13 | 13% | – | –
COc1cc(-c2coc3cc4c(c(O)c3c2=O)OCO4)cc(O)c1OC [Dichotomitin] | 34 | 22% | – | –
Mogroside IIA1 | 6 | 47% | – | –
Oxypaeoniflorin | 0 | 0% | – | –
CC(C)NCC(O)COc1cccc2ccccc12.Cl (centres unmarked) [Propranolol (hydrochloride)] | – | 51% and 35% | – | –
CNCC(O)c1ccc(O)cc1.Cl (centres unmarked) [Synephrine (hydrochloride)] | 0 | 4% | – | –
C[C@@H]1O[C@@H](OC[C@H]2O[C@@H](Oc3cc(O)c4c(=O)cc(-c5ccc(O)cc5)oc4c3)[C@H](O[C@@H]3O[C@@H](C)[C@H](O)[C@@H](O)[C@H]3O)[C@@H](O)[C@@H]2O)[C@H](O)[C@H](O)[C@H]1O [Ligustroflavone] | 10 | 8% | – | –
C[C@@H]1CC[C@]2(C(=O)O)CC[C@]3(C)C(=CC[C@@H]4[C@@]5(C)CC[C@H](O[C@@H]6OC[C@H](O)[C@H](O)[C@H]6O)C(C)(C)[C@@H]5CC[C@]43C)[C@@H]2[C@]1(C)O [Ziyuglycoside II] | 11 | 14% | – | –
CCCCCCCCCCCCCCCCCCOC(=O)[C@@]1(C)CC[C@]2(C)CC[C@]3(C)C(=CC(=O)[C@@H]4[C@@]5(C)CC[C@H](O)C(C)(C)[C@@H]5CC[C@]43C)[C@@H]2C1 [Stearyl glycyrrhetinate] | 0 | 0% | – | –
O=c1c(O[C@@H]2O[C@H](CO)[C@@H](O)[C@H](O)[C@H]2O[C@@H]2OC[C@@H](O)[C@H](O)[C@H]2O)c(-c2ccc(O)cc2)oc2cc(O)cc(O)c12 [Leucoside] | 9 | 8% | – | –
CCN[C@@H]1C[C@H](N)[C@@H](O[C@H]2OC(CN)=CC[C@H]2N)[C@H](O)[C@H]1O[C@H]1OC[C@](C)(O)[C@H](NC)[C@H]1O.CCN[C@@H]1C[C@H](N)[C@@H](O[C@H]2OC(CN)=CC[C@H]2N)[C@H](O)[C@H]1O[C@H]1OC[C@](C)(O)[C@H](NC)[C@H]1O.O=S(=O)(O)O.O=S(=O)(O)O.O=S(=O)(O)O.O=S(=O)(O)O.O=S(=O)(O)O [Netilmicin (sulfate)] | 0 | 1% | – | –
Cl.Cl.O=C(C[C@H]1NCCC[C@@H]1O)Cn1cnc2ccccc2c1=O [Febrifugine (dihydrochloride)] | 30 | 2% | – | –
CC(C)=C[C@@H]1CO[C@]23C[C@]4(CO2)[C@H](CC[C@@H]2[C@@]5(C)CC[C@H](O[C@@H]6OC[C@H](O)[C@H](O[C@@H]7O[C@H](CO)[C@@H](O)[C@H](O)[C@H]7O)[C@H]6O[C@@H]6O[C@@H](CO)[C@H](O)[C@H]6O)C(C)(C)[C@@H]5CC[C@]24C)[C@H]3[C@@]1(C)O [Bacopasaponin C] | 6 | 40% | – | –
C[C@H]1CC[C@@H]2N(C1)C[C@H]1[C@@H]3C[C@H]4[C@@H](C[C@@H](O)[C@H]5C[C@@H](O)CC[C@@]54C)[C@@H]3CC[C@@H]1[C@]2(C)O [Isoverticine] | 0 | 0% | – | –
CC(=O)O[C@H]1CC[C@]2(C)C3=C(CC[C@H]2C1(C)C)[C@]1(C)C[C@@H](O)[C@H]([C@@H](CCC=C(C)C)C(=O)O)[C@@]1(C)CC3 [3-O-Acetyl-16α-hydroxytrametenolic acid] | 7 | 10% | – | –
C[N+]1(C)CCC[C@H]1C(=O)[O-] [Stachydrine] | 0 | 0% | – | –
C=C[C@]1(C)C[C@@H](OC(=O)CSC(C)(C)CNC(=O)[C@H](N)C(C)C)[C@]2(C)[C@H](C)CC[C@]3(CCC(=O)[C@H]32)[C@@H](C)[C@@H]1O.Cl [Valnemulin (Hydrochloride)] | 29 | 12% | – | –
O=C(N[C@@H](c1ccccc1)[C@@H](O)C(=O)O)c1ccccc1 [N‐Benzoyl‐(2R,3S)‐3‐phenylisoserine] | 54 | 29% | – | –
CN(C)[C@@H]1C(=O)C(C(N)=O)=C(O)[C@@]2(O)C(=O)C3=C(O)c4c(O)cccc4[C@@](C)(O)[C@H]3C[C@@H]12.Cl [Tetracycline (hydrochloride)] | 26 | 11% | – | –
Trigonelline (chloride) | – | – | 2 | 17

Compound | Percentage of motility inhibition 0 h [1] [%] | Percentage of motility inhibition 24 h [2] | Percentage of motility inhibition 0 h (110 µM) [%] | Percentage of motility inhibition 24 h (110 µM) [%]
CC(=O)OC/C1=C/C[C@H]2[C@@H](/C=C(\C)C(=O)[C@@]3(OC(C)=O)C[C@H](C)[C@H](OC(=O)c4ccccc4)[C@@H]3[C@H]1OC(C)=O)C2(C)C [Euphorbia factor L7b] | 14 | 37% | – | –
COc1cc2c(cc1OC)C1Cc3ccc(OC)c(OC)c3CN1CC2.Cl (centres unmarked) [Tetrahydropalmatine (hydrochloride)] | 0 | 9% and 7% | – | –
C[C@@H]1CC[C@]2(C(=O)O)CC[C@]3(C)C(=CC[C@@H]4[C@@]5(C)C[C@@H](O)[C@H](O)C(C)(C)[C@@H]5CC[C@]43C)[C@@H]2[C@]1(C)O [Tormentic acid] | 3 | 5% | – | –
Cucurbitacin B | 5 | 0% | – | –
CC(=O)O[C@@H]1C[C@]23C[C@@](C)(O)[C@H](CC[C@H]2[C@@](C)(O)[C@@H]2[C@@H]4O[C@@H]4C(C)(C)[C@@]12O)[C@H]3O [Rhodojaponin II] | 4 | 8% | – | –
C=C1C[C@@]23CC[C@H]4[C@@](C)(CCC[C@@]4(C)C(=O)O[C@@H]4O[C@H](CO)[C@@H](O)[C@H](O[C@@H]5O[C@H](CO)[C@@H](O)[C@H](O)[C@H]5O)[C@H]4O[C@@H]4O[C@H](CO)[C@@H](O)[C@H](O)[C@H]4O)[C@@H]2CC[C@]1(O[C@@H]1O[C@H](CO)[C@@H](O)[C@H](O[C@@H]2O[C@H](CO)[C@@H](O)[C@H](O)[C@H]2O)[C@H]1O[C@@H]1O[C@H](CO)[C@@H](O)[C@H](O)[C@H]1O)C3 [Rebaudioside M] | 7 | 0% | – | –
Oc1cc(O)c2c(c1)O[C@@]1(c3ccc(O)c(O)c3)Oc3cc(O)c4c(c3[C@@H]2[C@H]1O)O[C@H](c1ccc(O)c(O)c1)[C@H](O)C4 [Procyanidin A2] | 6 | 3% | – | –
O=c1ccoc2cc(O)cc(O)c12 [5,7‐Dihydroxychromone] | 0 | 0% | – | –
CC(C)=CCC[C@](C)(O)[C@H]1CC[C@]2(C)[C@@H]1[C@H](O)C[C@@H]1[C@@]3(C)CC[C@H](O[C@@H]4O[C@H](CO)[C@@H](O)[C@H](O)[C@H]4O[C@@H]4O[C@H](CO)[C@@H](O)[C@H](O)[C@H]4O)C(C)(C)[C@@H]3CC[C@]12C [20(S)-Ginsenoside Rg3] | 0 | 0% | – | –
CC1(C)OC2CC(=O)OCC23C1CC(=O)C1(C)C2=CC(=O)OC(c4ccoc4)C2(C)CCC13 (centres unmarked) [Deoxylimonin] | 9 | 50% | – | –
CC(=O)O[C@H]1[C@H](O[C@H]2CC[C@]34C[C@]35CC[C@]3(C)[C@@H]([C@@]6(C)CC[C@@H](C(C)(C)O)O6)[C@@H](O)C[C@@]3(C)[C@@H]5C[C@H](O[C@@H]3O[C@H](CO)[C@@H](O)[C@H](O)[C@H]3O)[C@H]4C2(C)C)OC[C@@H](O)[C@@H]1O [Astragaloside II] | 5 | 45% | – | –
COC1=C[C@@H]2[C@@H]3Cc4ccc(OC)c(O)c4[C@]2(CCN3C)CC1=O.Cl [Sinomenine hydrochloride] | – | 0% and 8% | – | –
O=C[C@H](O)[C@@H](O)[C@H](O)CO (racemic) [DL-Xylose] | 0 | 5% | – | –
C[C@@H]1O[C@H]2O[C@H]3[C@@H](OC[C@H](O)[C@@H]3O)OC(=O)[C@]34CCC(C)(C)C[C@H]3C3=CC[C@@H]5[C@@]6(C)C[C@H](O)[C@H](O[C@@H]7O[C@H](CO)[C@@H](O)[C@H](O)[C@H]7O[C@@H]7O[C@@H](COC(=O)C[C@](C)(O)CC(=O)O[C@@H]1[C@@H](O[C@@H]1OC[C@@H](O)[C@H](O)[C@H]1O)[C@H]2O)[C@H](O)[C@@H](O)[C@@H]7O)[C@@](C)(CO)[C@@H]6CC[C@@]5(C)[C@]3(C)C[C@H]4O [Tubeimoside III] | 0 | 36% | – | –
C=C(CC[C@@H](C(=O)O)[C@H]1[C@H](O)C[C@@]2(C)C3=CC[C@H]4C(C)(C)C(=O)CC[C@]4(C)C3=CC[C@]12C)C(C)C [Polyporenic acid C] | 30 | 12% | – | –
O=C(Nc1ccccc1F)N[C@H]1N=C(c2ccccc2)c2ccccc2NC1=O (racemic) [RSV604 (racemate)] | 23 | 13% | – | –
COc1cc(/C=C/C(=O)NCCc2ccc(O)cc2)ccc1O [N‐trans‐Feruloyltyramine] | 5 | 16% | – | –
CC(C(O)c1ccc(O)cc1)N1CCC(Cc2ccccc2)CC1.CC(C(O)c1ccc(O)cc1)N1CCC(Cc2ccccc2)CC1.O=C(O)C(O)C(O)C(=O)O (centres unmarked) [Ifenprodil (ta rtrate)] | 12 | 15% | – | –
CN1CCC=C(C(=O)O)C1.Cl [Arecaidine (hydrochloride)] | 7 | 6% | – | –
COc1cc2c3c(c1O)-c1ccccc1C[C@@H]3N(C)CC2 [Lirinidine] | 0 | 6% | – | –
